The source of these data is patent publication US9045524B2, “Selective caspase inhibitors and uses thereof” (NOVAGENESIS FOUNDATION, priority 2009, dated 2015).

Peptide text beside a SMILES is read from it. * marks the point of attachment. Cbz = O=C(OCc1ccccc1)*; CH2F = FC*

For one test, the system named is EAE in C57BL/6 mice. The experiment in a line: Chronic EAE mouse model (MOG35-55 immunization), daily clinical score and body weight. The following applies: for Delay in onset of the disease / Reduction in body weight loss / Reduction in severity of the disease: average overall effects on the EAE model, i.p. On the set-up: key to Delay in onset of the disease / Reduction in severity of the disease / Reduction in body weight loss: +++: high level improvement; ++: moderate improvement; +: small improvement; −: no improvement. Format: in vivo. In short, it runs like this: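 Female C57BL/6 mice, 7–8 weeks old, were immunized s.c. with 100 μg MOG35-55 in CFA containing M. tuberculosis H37Ra, plus 200 ng pertussis toxin i.p. on days 0 and 2. […], compound in 2.5% DMSO/PBS was given i.p.; vehicle for placebo. Clinical score (0–5) and body weight were recorded daily.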

A further test concerns the target Caspase-2 (Homo sapiens (Human), UniProt P42575). As to the kind of experiment: Fluorometric enzymatic assay, active recombinant Caspase-2. Format: biochemical. The following applies: 10-point titration 0.1 nM to 3.3 μM, 30-minute incubation at 37° C.; read-out: IC50 values (μM) Caspase-2. The method, then:
(§1) . In brief, each compound was serially diluted for a final test concentration range of 0.1 nM to 3.3 μM (10-point titration). Each active recombinant Caspase (Active Recombinant Caspase Set IV™ (BioVision, Cat# K233-10-25)) was added to the respective wells of the 96-well High Efficiency™ plates (Molecular Devices, Cat#75-000-0005), followed by the addition of the diluted test compounds. DMSO (Final=1%) or Z-VAD-FMK (Caspase-Family Inhibitor, Z-VAD-FMK (BioVision, Cat#1010-100), Final concentration=20 uM) was added in the designated wells as a background control or positive inhibitor control respectively. Each dilution of the test compounds was tested in duplicates, whereas the DMSO or Z-VAD-FMK controls were tested in triplicates. The synthetic peptide substrate specific for each Caspase (BioVision) was then added to the respective wells, which when cleaved by the active caspase releases free AFC that can be quantified by fluorometry. After a 30-minute incubation at 37° C., the plates were read using the Flexstation 3™ with a 400 nm excitation filter and a 505 nm emission filter (cutoff at 495 nm). The inhibition efficiency and the IC50 values of the test compounds were then determined by comparing the fluorescence intensity (FI) of the test compounds with that of the DMSO control.
(§2) The SoftMax Pro Software™ (v5.2 rev C, Molecular Devices) was used for data analysis. The % Inhibition is calculated by: % Inhibition=[FI(DMSO)−FI(test sample)/FI(DMSO)]×100. The % Inhibition vs. Log(concentration) was plotted, and the curve was fitted using the 5-parameter fit of the software.

A further test addresses Caspase-5 (Homo sapiens (Human), UniProt P51878). The experiment in a line: Fluorometric enzymatic assay, active recombinant Caspase-5. In kind it is biochemical. The settings on record: 10-point titration 0.1 nM to 3.3 μM, 30-minute incubation at 37° C.; read-out: IC50 values (μM) Caspase-5. The method, then:
as §1, §2

The target in another test is Caspase-6 (Homo sapiens (Human), UniProt P55212). The experiment in a line: Fluorometric enzymatic assay, active recombinant Caspase-6. In kind it is biochemical. The following applies: 10-point titration 0.1 nM to 3.3 μM, 30-minute incubation at 37° C.; read-out: IC50 values (μM) Caspase-6. As to the method:
as §1, §2

A further test deals with Caspase-8 (Homo sapiens (Human), UniProt Q14790). As to the kind of experiment: Fluorometric enzymatic assay, active recombinant Caspase-8. Format: biochemical. The following applies: 10-point titration 0.1 nM to 3.3 μM, 30-minute incubation at 37° C.; read-out: IC50 values (μM) Caspase-8. As to the method: as §1, §2
The target in a further test is Caspase-1 (Homo sapiens (Human), UniProt P29466). As to the kind of experiment: Fluorometric enzymatic assay, active recombinant Caspase-1. The settings on record: read-out: IC50 values (μM) Caspase-1; 10-point titration 0.1 nM to 3.3 μM, 30-minute incubation at 37° C.
A further test deals with Caspase-3 (Homo sapiens (Human), UniProt P42574). The experiment in a line: Fluorometric enzymatic assay, active recombinant Caspase-3. The following applies: for inhibitory activity towards Caspase-3: FIG. 5; for IC50: read-out: IC50 values (μM) Caspase-3, 10-point titration 0.1 nM to 3.3 μM, 30-minute incubation at 37° C.
A further test deals with Caspase-4 (Homo sapiens (Human), UniProt P49662). The experiment in a line: Fluorometric enzymatic assay, active recombinant Caspase-4. The following applies: read-out: IC50 values (μM) Caspase-4; 10-point titration 0.1 nM to 3.3 μM, 30-minute incubation at 37° C.
The target in the next test is Caspase-7 (Homo sapiens (Human), UniProt P55210). As to the kind of experiment: Fluorometric enzymatic assay, active recombinant Caspase-7. The following applies: for IC50: read-out: IC50 values (μM) Caspase-7, 10-point titration 0.1 nM to 3.3 μM, 30-minute incubation at 37° C.
Another test has as its target Caspase-9 (Homo sapiens (Human), UniProt P55211). As to the kind of experiment: Fluorometric enzymatic assay, active recombinant Caspase-9. The following applies: for IC50: read-out: IC50 values (μM) Caspase-9, 10-point titration 0.1 nM to 3.3 μM, 30-minute incubation at 37° C.
For the next test, the target named is Caspase-10 (Homo sapiens (Human), UniProt Q92851). The experiment in a line: Fluorometric enzymatic assay, active recombinant Caspase-10. The following applies: for IC50: read-out: IC50 values (μM) Caspase-10, 10-point titration 0.1 nM to 3.3 μM, 30-minute incubation at 37° C.
The next test has as its system Caspase-1 to -10. As to the kind of experiment: Fluorometric caspase enzymatic assays, positive inhibitor control (all experiments). Format: biochemical. The settings on record: Final concentration=20 uM. As to the method: as §1, with “In” for “. In”, “control. […]” for “control.”
Setting [1] is: FIG. 3, i.p. from day 14 to 19 post immunization, versus placebo.

Sequence of Caspase-9 (P55211 whole entry, looked up, change not shown): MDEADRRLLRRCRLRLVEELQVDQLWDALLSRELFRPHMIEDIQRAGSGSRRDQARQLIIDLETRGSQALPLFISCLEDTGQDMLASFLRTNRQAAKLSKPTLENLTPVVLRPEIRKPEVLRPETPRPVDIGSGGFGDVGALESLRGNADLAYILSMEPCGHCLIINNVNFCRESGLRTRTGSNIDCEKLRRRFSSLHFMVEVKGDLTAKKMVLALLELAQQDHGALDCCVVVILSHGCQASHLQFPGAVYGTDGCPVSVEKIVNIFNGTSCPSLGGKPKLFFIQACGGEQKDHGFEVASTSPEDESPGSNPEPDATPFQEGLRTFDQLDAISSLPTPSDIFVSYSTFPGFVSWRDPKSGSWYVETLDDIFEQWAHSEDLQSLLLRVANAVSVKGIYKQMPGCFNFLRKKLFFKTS
Sequence of Caspase-9 (P55211 whole entry, looked up, change not shown): as above
Sequence of Caspase-10 (Q92851 220-415): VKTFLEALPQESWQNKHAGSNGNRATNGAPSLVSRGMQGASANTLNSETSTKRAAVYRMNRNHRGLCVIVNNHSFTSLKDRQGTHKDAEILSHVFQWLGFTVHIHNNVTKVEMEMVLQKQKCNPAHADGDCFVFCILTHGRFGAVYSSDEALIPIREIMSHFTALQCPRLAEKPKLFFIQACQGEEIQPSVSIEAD
Sequence of Caspase-10 (Q92851 416-521): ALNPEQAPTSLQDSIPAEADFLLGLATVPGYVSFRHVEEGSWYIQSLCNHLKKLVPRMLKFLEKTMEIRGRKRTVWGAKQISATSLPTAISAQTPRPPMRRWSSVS
Sequence of Caspase-7 (P55210 whole entry, looked up): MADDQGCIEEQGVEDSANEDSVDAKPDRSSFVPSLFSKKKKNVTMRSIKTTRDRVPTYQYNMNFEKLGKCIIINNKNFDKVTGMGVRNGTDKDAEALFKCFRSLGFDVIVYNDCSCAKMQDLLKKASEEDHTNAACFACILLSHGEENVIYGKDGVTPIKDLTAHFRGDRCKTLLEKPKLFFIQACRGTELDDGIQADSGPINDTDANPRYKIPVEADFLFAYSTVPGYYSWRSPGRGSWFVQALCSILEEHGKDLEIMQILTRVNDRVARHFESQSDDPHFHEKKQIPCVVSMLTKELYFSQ
Sequence of Caspase-7 (P55210 whole entry, looked up): as above
Sequence of Caspase-3 (P42574 29-175): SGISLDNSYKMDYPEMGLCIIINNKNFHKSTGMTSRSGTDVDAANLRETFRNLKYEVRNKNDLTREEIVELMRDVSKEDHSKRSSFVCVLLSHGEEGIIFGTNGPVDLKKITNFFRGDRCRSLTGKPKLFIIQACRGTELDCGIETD
Sequence of Caspase-3 (P42574 176-277): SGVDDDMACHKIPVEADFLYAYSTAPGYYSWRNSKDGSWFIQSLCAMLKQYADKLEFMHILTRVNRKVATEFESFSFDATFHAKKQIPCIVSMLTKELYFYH
Sequence of Caspase-8 (Q14790 217-374): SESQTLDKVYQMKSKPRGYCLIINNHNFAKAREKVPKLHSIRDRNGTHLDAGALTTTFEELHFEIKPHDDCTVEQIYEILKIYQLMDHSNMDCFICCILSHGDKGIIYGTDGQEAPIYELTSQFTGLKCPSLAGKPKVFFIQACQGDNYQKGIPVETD
Sequence of Caspase-8 (Q14790 385-479): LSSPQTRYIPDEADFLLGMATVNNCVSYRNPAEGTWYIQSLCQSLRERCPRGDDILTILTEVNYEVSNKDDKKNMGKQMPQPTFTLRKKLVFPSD
Sequence of Caspase-4 (P49662 81-270): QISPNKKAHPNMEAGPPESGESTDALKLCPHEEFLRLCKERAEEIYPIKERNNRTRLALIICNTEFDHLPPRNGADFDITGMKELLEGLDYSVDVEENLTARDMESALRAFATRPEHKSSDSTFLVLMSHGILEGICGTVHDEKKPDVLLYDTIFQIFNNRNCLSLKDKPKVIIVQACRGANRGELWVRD
Sequence of Caspase-4 (P49662 290-377): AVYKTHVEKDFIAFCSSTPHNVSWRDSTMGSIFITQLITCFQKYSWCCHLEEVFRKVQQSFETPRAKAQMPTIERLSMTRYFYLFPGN
Sequence of Caspase-5 (P51878 whole entry, looked up): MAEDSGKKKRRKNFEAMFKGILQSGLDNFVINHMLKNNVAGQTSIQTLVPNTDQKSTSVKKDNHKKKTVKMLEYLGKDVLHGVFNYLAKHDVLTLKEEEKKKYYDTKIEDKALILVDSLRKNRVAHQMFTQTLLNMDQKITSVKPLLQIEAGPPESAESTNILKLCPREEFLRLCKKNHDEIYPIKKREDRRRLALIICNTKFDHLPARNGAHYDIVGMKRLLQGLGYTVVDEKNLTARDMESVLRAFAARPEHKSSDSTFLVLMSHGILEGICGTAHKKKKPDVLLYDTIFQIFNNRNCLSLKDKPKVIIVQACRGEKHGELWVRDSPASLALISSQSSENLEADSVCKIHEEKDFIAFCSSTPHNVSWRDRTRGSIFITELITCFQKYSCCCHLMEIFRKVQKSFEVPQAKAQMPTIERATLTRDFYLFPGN
Sequence of Caspase-5 (P51878 whole entry, looked up): as above
Sequence of Caspase-6 (P55212 24-179): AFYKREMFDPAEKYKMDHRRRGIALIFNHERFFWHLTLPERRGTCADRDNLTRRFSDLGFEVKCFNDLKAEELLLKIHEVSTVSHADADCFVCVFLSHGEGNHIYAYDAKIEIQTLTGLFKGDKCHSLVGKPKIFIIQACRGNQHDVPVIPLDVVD
Sequence of Caspase-6 (P55212 194-293): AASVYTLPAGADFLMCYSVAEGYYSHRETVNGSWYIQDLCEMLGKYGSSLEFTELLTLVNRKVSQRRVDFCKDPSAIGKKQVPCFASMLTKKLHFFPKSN
Sequence of Caspase-2 (P42575 170-325): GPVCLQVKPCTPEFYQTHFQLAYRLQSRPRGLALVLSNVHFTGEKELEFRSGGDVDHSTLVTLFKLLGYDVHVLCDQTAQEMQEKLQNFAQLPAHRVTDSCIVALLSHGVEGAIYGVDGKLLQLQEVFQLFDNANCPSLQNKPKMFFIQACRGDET
Sequence of Caspase-2 (P42575 348-452): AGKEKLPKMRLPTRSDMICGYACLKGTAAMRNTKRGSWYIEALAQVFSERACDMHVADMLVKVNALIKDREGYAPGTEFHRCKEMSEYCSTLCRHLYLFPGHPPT
Sequence of Caspase-1 (P29466 whole entry, looked up): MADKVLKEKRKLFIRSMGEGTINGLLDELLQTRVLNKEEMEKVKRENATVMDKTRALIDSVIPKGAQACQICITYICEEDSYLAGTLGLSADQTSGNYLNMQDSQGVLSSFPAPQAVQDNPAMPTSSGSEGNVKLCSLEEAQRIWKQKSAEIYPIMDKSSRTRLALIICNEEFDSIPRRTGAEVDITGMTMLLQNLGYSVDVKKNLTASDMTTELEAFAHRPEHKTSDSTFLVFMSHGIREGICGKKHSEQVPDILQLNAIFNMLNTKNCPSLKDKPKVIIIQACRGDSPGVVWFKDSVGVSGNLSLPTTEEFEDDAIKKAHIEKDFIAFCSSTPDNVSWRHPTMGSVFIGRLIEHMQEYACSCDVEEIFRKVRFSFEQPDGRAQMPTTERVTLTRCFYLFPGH
Sequence of Caspase-1 (P29466 whole entry, looked up): as above
Description for Caspase-10: (§3) Each dilution of the test compounds was tested in duplicates, whereas the DMSO or Z-VAD-FMK controls were tested in triplicates. […] The inhibition efficiency and the IC50 values of the test compounds were then determined by comparing the fluorescence intensity (FI) of the test compounds with that of the DMSO control.
Description for Caspase-3: as §3
Description for Caspase-4: as §3
Description for Caspase-7: as §3
Description for Caspase-9: as §3

As usually defined, the IC50 is the concentration needed to halve the response being measured. For the compound `CC(C)[C@H](NC(=O)[C@H](Cc1cccc2ccccc12)NC(=O)[C@H](CC(=O)O)NC(=O)OCc1ccccc1)C(=O)N[C@H](/C=C/S(C)(=O)=O)CC(=O)O` [Compound 111, Z-Asp-3-(1-naphtyl)-L-alanine-Val-Aspmethyl vinyl sulfone], the “effects on the clinical course of EAE” value in the test with EAE in C57BL/6 mice (setting [1]) is given as “ameliorating effects”. In the test with EAE in C57BL/6 mice, the “Delay in onset of the disease” value is listed as “+”. Besides, the “Reduction in body weight loss” value in the test on EAE in C57BL/6 mice was “++”. For the same compound, the “Reduction in severity of the disease” value with EAE in C57BL/6 mice was “++”. In addition, the concentration for half-maximal inhibition (IC50) is above 3.33 µM at Caspase-2; above 3.33 µM at Caspase-5; above 3.33 µM on Caspase-6; above 3.33 µM on Caspase-8; above 3.33 µM at Caspase-1; 0.08 µM on Caspase-3. The IC50 at Caspase-4, on Caspase-7, at Caspase-9 and on Caspase-10 was above 3.33 µM in each case. Besides, the “inhibitory activity towards Caspase-3” value at Caspase-3 was “high inhibitory activity”.

As to `CC(C)[C@H](NC(=O)[C@@H](NC(=O)[C@H](CC(=O)O)NC(=O)OCc1ccccc1)c1ccccc1)C(=O)N[C@H](/C=C(\Cl)S(C)(=O)=O)CC(=O)O` [Compound 123, Z-Asp-phenylglycine-Val-Asp-achlorovinyl methylsulfone], the “Loss of body weight” value in the test on EAE in C57BL/6 mice (setting [1]) was “less than in the placebo group”. The “effects on the clinical course of EAE” value in the test with EAE in C57BL/6 mice (setting [1]) is “ameliorating effects”. For the same compound, the “Delay in onset of the disease” value with EAE in C57BL/6 mice is “+”. For the same compound, the “Reduction in body weight loss” value in the test with EAE in C57BL/6 mice is recorded as “+++”. Further, the “Reduction in severity of the disease” value with EAE in C57BL/6 mice is recorded as “++”. Further, the IC50 on Caspase-2 was above 3.33 µM; at Caspase-5, above 3.33 µM; at Caspase-6 it was above 3.33 µM; at Caspase-8, above 3.33 µM; on Caspase-1 it was above 3.33 µM; on Caspase-3, 0.06 µM. Besides, the 50% inhibitory concentration (IC50) is above 3.33 µM on Caspase-4, 0.5 µM on Caspase-7, 2.8 µM on Caspase-9 and 2 µM on Caspase-10. Further, at Caspase-3, the “inhibitory activity towards Caspase-3” value is recorded as “high inhibitory activity”. For the same compound, the “inhibitory activity towards Caspase-7” value at Caspase-7 (FIG. 5) is given as “high inhibitory activity”. Further, the “inhibitory activity towards Caspase-9” value on Caspase-9 (FIG. 5) is on record as “inhibitory activity”. In addition, the “inhibitory activity towards Caspase-10” value at Caspase-10 (FIG. 5) was “inhibitory activity”.

As to `COC(=O)C[C@H](NC(=O)[C@H](C)NC(=O)[C@@H](NC(=O)OCc1ccccc1)C(C)C)C(=O)CF` [Z-VAD-FMK, benzyloxycarbonyl-Val-Ala-Asp-fluoromethylketone] (Cbz-Val-Ala-Asp(OMe)-CH2F), the “inhibition by positive inhibitor control” value with Caspase-1 to -10 was above 50%.
